Read-outs that look alike come from different tables or passages of the source.
Key:
[1] = system: MB49 cells; experiment: Annexin V-FITC/PI apoptosis flow cytometry; type: cell-based, murine; settings: Mus musculus, MB49, 24 h, read-out: Q4-3 (Q3, viable) cells
Method: (§1) The potential of cells treated with UA or 5c to undergo dose-dependent apoptosis was explored using quantitative flow cytometric analysis, as shown in Figure 4. Utilizing a kit that detects quantitative binding of Annexin V to externalized phosphatidyl serine during the apoptosis cascade and permeability of Propidium iodide (PI) in cells undergoing cell death, we determined the cells at various stages of cell death following 24h incubation with UA and 5c in various bladder cancer cells.
(§2) We used a fluorescence-based Annexin V binding assay to determine the fraction of the cell population undergoing early and late apoptosis due to the cytotoxicity of the drugs. Cells plated in a 60 mm dish overnight at 0.3 × 10^6 cells/well were incubated with the selected drug at several doses for 24 h. Subsequently, treated cells were labeled with FITC-Annexin V using a kit (eBioscience™ Annexin V Apoptosis Detection Kits; Invitrogen # 88-8005-72, Thermo Fisher Scientific, Seoul, Korea) as per the manufacturer’s instructions. Intact cell suspension labeled with FITC-Annexin V and PI was run on the NovoCyte Quanteon flow cytometer, and data were acquired in list mode. Acquired data were analyzed using NovoExpress software (version 1.6.1). Cells treated with Staurosporine (0.2 µM) act as a positive control.

[2] = system: 5637 cells; experiment: Annexin V-FITC/PI apoptosis flow cytometry; type: cell-based; settings: Homo sapiens, 24 h, read-out: Q3-3 (Q3, viable) cells
Method: as §1, §2

[3] = system: MCF-12A; experiment: MTT assay, non-tumorigenic breast epithelial cell line; type: cell-based, human; settings: Homo sapiens, MCF-12A; MTT, 72 h, non-tumorigenic cells; read-out: IC50 (Mean ± SD), MCF-12A
Method: (§3) The synthesized hybrid conjugates 5a–d were evaluated for their antiproliferative activity against the established human bladder cancer cell lines T24 and 5637. Test compounds were dissolved in ultrapure dimethyl sulfoxide (DMSO), diluted in cell culture media, added to cells cultured in 96-well cluster wells, and incubated for 72 h. The concentration of DMSO in culture media was maintained at < 0.05%. As previously reported, the fraction of viable cells in the culture wells was compared to that in cultures with 0.05% DMSO-only using a colorimetric assay, the Methyl Tetrazolium Bromide (MTT) reduction assay. We determined the selectivity index (SI) of the compounds 5a–d against tumor cells by comparing their cytotoxicity to that of a non-tumorigenic breast epithelial cell line, MCF-12A, as well as a non-tumorigenic, immortalized urothelial cell line, UROtsa (Table 1, and Figure 2).
(§4) The antiproliferative activities of various compounds examined in this report were measured using the MTT (3-[4,5-dimethylthiazol-2-yl]-2,5-diphenyl-tetrazolium bromide) reduction assay, as previously described. Briefly, cells were seeded at 2 × 10^3 cells per well in a 96-well plate and cultured overnight. The cells were then treated with different doses (5 µM, 10 µM, 15 µM, 20 µM, 25 µM, 30 µM, 35 µM, 40 µM in DMSO) for 72 h. Viability of the treated cultures was estimated by conversion of MTT to the insoluble formazan after 3h incubation at 37 °C and 5% CO2. The purple-colored formazan crystals were dissolved in DMSO, and absorbance was recorded at wavelengths 570/640 nm using the Bio-Rad Benchmark Plus Microplate Reader. The percent of viable cells was calculated ODtreated cells/ODcontrol cell wells × 100.

[4] = system: 5637 cells; experiment: MTT antiproliferative assay; type: cell-based, human; settings: for IC50: 72 h, MTT, read-out: IC50 (Mean ± SD), 5637
Method: as §3, §4

[5] = system: T24 cells; experiment: MTT antiproliferative assay; type: cell-based, human; settings: for IC50: Homo sapiens, T-24, MTT, 72 h, read-out: IC50 (Mean ± SD), T24; for SI (selectivity index), T24: IC50 MCF-12A / IC50 T24
Method: as §3, §4

[6] = system: human bladder cancer cell lines T24 and 5637; experiment: MTT antiproliferative activity, result in words; type: cell-based; settings: 72 h
Method: as §3
The antiproliferative activities of various compounds examined in this report were measured using the MTT (3-[4,5-dimethylthiazol-2-yl]-2,5-diphenyl-tetrazolium bromide) reduction assay, as previously described. […] The purple-colored formazan crystals were dissolved in DMSO, and absorbance was recorded at wavelengths 570/640 nm using the Bio-Rad Benchmark Plus Microplate Reader. The percent of viable cells was calculated ODtreated cells/ODcontrol cell wells × 100.

Compound	viability at 0.2 µM [1]	viability at 0.2 µM [2]	IC50 [3]	IC50 ([4]; Homo sapiens)	IC50 [4]	IC50 [5]	SI (selectivity index), T24 [5]	antiproliferative activity [6]	SI (selectivity index), 5637 ([4]; IC50 MCF-12A / IC50 5637)
CN[C@@H]1C[C@H]2O[C@@](C)([C@@H]1OC)n1c3ccccc3c3c4c(c5c6ccccc6n2c5c31)C(=O)NC4 [Stauro., Staurosporine]	12.3%	25.3%	–	–	–	–	–	–	–
CC1CCC2(C(=O)OCCCOC(=O)CCCCC3SCC4NC(=O)NC43)CCC3(C)C(=CCC4C5(C)CCC(O)C(C)(C)C5CCC43C)C2C1C [Compound 5b, 3-((5-((3aS,4S,6aR)-2-Oxohexahydro-1H-thieno [3,4-d]imidazol-4-yl)pentanoyl)oxy) propyl 3-hydroxy-urs-12-en-28-oate]	–	–	73.33 ± 0.12 µM	≥ 10000 µM	> 10000 µM	108 ± 24.4 µM	0.68	ineffective	–
CC1CCC2(C(=O)OCCCCCCOC(=O)CCCCC3SCC4NC(=O)NC43)CCC3(C)C(=CCC4C5(C)CCC(O)C(C)(C)C5CCC43C)C2C1C [Compound 5d, 6-((5-((3aS,4S,6aR)-2-Oxohexahydro-1H-thieno [3,4-d]imidazol-4-yl)pentanoyl)oxy) hexyl 3-hydroxy-urs-12-en-28-oate]	–	–	3820 µM	> 10000 µM	–	582 µM	6.57	largely inactive	–
CC1CCC2(C(=O)OCCOC(=O)CCCCC3SCC4NC(=O)NC43)CCC3(C)C(=CCC4C5(C)CCC(O)C(C)(C)C5CCC43C)C2C1C [Compound 5a, 2-((5-((3aS,4S,6aR)-2-Oxohexahydro-1H-thieno [3,4-d]imidazol-4-yl)pentanoyl)oxy) ethyl 3-hydroxy-urs-12-en-28-oate]	–	–	626 ± 34.7 µM	39.3 ± 21.2 µM	–	14.6 ± 4.97 µM	42.96	–	15.92
